# PubChem BioAssay AID1626 (SRMLSC, 2009)
# Tested on: M. tuberculosis H37Rv growth inhibition
# Experiment: M. tuberculosis H37Rv growth inhibitors, H37Rv strain (AID 1626)
# Settings: for IC90: measured here: IC90 against H37Rv; for CC50: measured here: Vero cell cytotoxicity
Structure (SMILES),IC50,IC90,CC50
O=C1C=C(Nc2ccccc2O)c2ccccc2C1=O,23.3 µM,26.6 µM,13.3 µM
O=C(OCC#CCSc1nc2ccccc2o1)c1cc2ccccc2o1,5.72 µM,12.7 µM,> 40 µM
CCCCc1c(C)c(C#N)c2[nH]c3ccccc3n2c1=O,23.2 µM,> 100 µM,22.9 µM
Cc1ccc(Oc2nc(CN3CCOCC3)nc3sc4c(c23)CCC(C)C4)cc1 (configuration not stated),17.1 µM,22.4 µM,> 40 µM
COC(=O)CSc1nc(N)c(C#N)c(CC(C)C)c1C#N,2.91 µM,57.5 µM,–
Cc1ccc(-c2csc3nc[nH]c(=S)c23)cc1C,20 µM,> 100 µM,26.1 µM
Cc1cc(Nc2ccccc2)nc(NCc2ccccc2)n1,10.9 µM,14.4 µM,23.3 µM
O=C(CNCc1ccco1)Nc1ccc(Oc2ccccc2)cc1,–,> 100 µM,> 40 µM
Cc1ccccc1OCc1nc(-c2ccc(NC(=O)c3cccs3)cc2)no1,4.48 µM,46.6 µM,–
CCCCCOC(=O)NCCOC(=O)Nc1ccc(C(=O)OCC)cc1,< 0.195 µM,> 100 µM,> 40 µM
CC(C)N1CCC2(CC1)N=C(c1ccc3c(c1)OCO3)CC(c1cc(Cl)ccc1O)N2 (configuration not stated),8.26 µM,12.4 µM,12.5 µM
Cc1ccccc1-c1nc2cc(N)ccc2o1,15.3 µM,> 100 µM,–
CCOC(=O)CSc1nnc(-c2cccc(Br)c2)o1,0.486 µM,15.2 µM,–
N#Cc1ccc(C(=O)Nc2nnc(-c3ccco3)o2)cc1,7.95 µM,> 100 µM,> 40 µM
COc1ccc(N2CCN(c3nc(-c4cccs4)nc4ccccc34)CC2)cc1,–,> 100 µM,–
CC1C(c2ccccc2)N(C)C(c2ccccc2)CC1(O)c1ccccc1 (configuration not stated),5.85 µM,6.61 µM,> 40 µM
O=C(c1nnsc1S(=O)(=O)c1ccc(Cl)cc1)N1CCOCC1,7.98 µM,11.6 µM,11.3 µM

Structure (SMILES),IC50,IC90,CC50
N#Cc1ccc(/C=C/C(=O)c2cccnc2)cc1,4.84 µM,6.15 µM,19.3 µM
COc1ccc(S(=O)(=O)Oc2ccc3c(c2)O/C(=C\c2cccnc2)C3=O)cc1,2.34 µM,19.4 µM,–
O=C(COC(=O)C1COc2ccccc2O1)NC(=O)Nc1ccc2c(c1)OCCO2 (configuration not stated),–,> 100 µM,–
CC(C)(C)c1ccc(-c2cn(-c3ccc(Br)cc3)c3[n+]2CCCS3)cc1,2.62 µM,4.97 µM,13.3 µM
O=c1oc2ccc3ccccc3c2cc1-c1nc2ccccc2o1,2.79 µM,7.33 µM,–
Cc1ccc(Nc2c(-c3ccccn3)nc3ccc(C)cn23)cc1,1.43 µM,1.63 µM,1.54 µM
c1ccc(CN2CCC(N=C3NN=C(c4ccc5c(c4)OCCO5)CS3)CC2)cc1,18.2 µM,21.6 µM,> 40 µM
Cc1ccc(NC2=C/C(=N\S(=O)(=O)c3cccs3)c3ccccc3C2=O)c(C)c1,3.89 µM,5.64 µM,3.74 µM
COc1cc(-c2cc(C(=O)Nc3nc4ccccc4s3)c3ccccc3n2)cc(OC)c1OC,–,> 100 µM,> 40 µM
O=c1c([N+](=O)[O-])cc(C(F)(F)F)cn1Cc1cccc(Cl)c1,8.56 µM,22.2 µM,–
c1csc(Cc2nn3c(-c4n[nH]c5c4CCC5)nnc3s2)c1,0.412 µM,11 µM,> 40 µM
CCOc1ccc(N=Cc2c(O)n(-c3cc(C)cc(C)c3)c(=O)[nH]c2=O)cc1,< 0.195 µM,> 100 µM,–
Cc1cc(C)n2c(SCc3ccc(Br)cc3)nnc2n1,–,–,> 40 µM
COc1ccc(CNC(=O)c2sc3nc4c(c(C(F)(F)F)c3c2N)CCC4)cc1OC,12 µM,18.3 µM,–
CC(=O)Nc1cccc(C(=O)/C=C/c2ccc(Br)cc2)c1,6.48 µM,9.82 µM,10.7 µM
O=C(COc1ccc(Cl)cc1)Nc1nnc(-c2ccc3c(c2)CCCC3)o1,54.3 µM,> 100 µM,> 40 µM
